For one molecule, inhibition and IC50 results are on record in ChEMBL document CHEMBL1136826, “A new synthesis of cytoxazone and its diastereomers provides key initial SAR information” (Bioorg Med Chem Lett, 2003).

pIC50: −log10 of the molar value.

Experiment [1] in a line: Inhibitory activity against IL-4 on stimulated human peripheral blood mononuclear cells at 30 uM concentration. Type of experiment: functional.
The nature of experiment [2]: Inhibitory activity against IL-2 on stimulated human peripheral blood mononuclear cells at 30 uM concentration. Type of experiment: functional.
A short description of experiment [3]: Inhibitory activity against IL-10 on stimulated human peripheral blood mononuclear cells at 30 uM concentration. Type of experiment: functional.
The species named for the next experiment is Mus musculus. As to the kind of experiment: Inhibitory activity against blockage secretion of IL-10 in pokeweed mitogen (PWN)-stimulated murine splenocytes. Type of experiment: functional, organism-based.
Experiment [4] is described as follows: Inhibitory activity against IL-5 on stimulated human peripheral blood mononuclear cells at 30 uM concentration. In kind it is functional.

As usually defined, the inhibition is how much of the control response was suppressed. Read a low inhibition as a weak effect. In general, pIC50 refers to −log10 of the IC50, conventionally taken in molar units. Take `COc1ccc([C@H]2NC(=O)O[C@H]2CO)cc1`: the inhibition at 30 µM was 73% in experiment [1], 19% in experiment [2], 94% in experiment [3] and 66% in experiment [4]. For the same molecule, in the experiment filed under Mus musculus, the pIC50 was 5.00.
